# According to patent US20030199530A1, “New compounds derived from quinazoline” (priority 2002, published 2003):
# Legend:
# [1] = test system: cells transfected with v-H-ras; experiment: Cell proliferation test (MTT) on RAT2 fibroblasts transfected with v-H-ras; type: cell-based; settings: Rattus norvegicus, 96 h, RAT2 transfectant, 10% serum, four days, read-out: IC50 of inhibition of growth of cells transfected by the oncogene v-H-ras
# Method: a) The RAT2 line of rat fibroblasts and an appropriate transfectant for the insertion of the gene v-H-ras were used to test the effectiveness of the claimed products on cells.
# The parental and transfected cells are cultured in 96-well plates for cell culture in the presence of medium containing 10% serum. Twenty four hours later, the test products are added to the same medium over a period of four days and the final quantity of cells is estimated indirectly by the cell viability method using 3-(4,5-dimethylthiazol-2-yl)-2,5-diphenyltetrazolium bromide (MTT).
# FTase = target: T1, FTase (Rattus norvegicus, UniProt Q02293+Q04631); experiment: FTase enzyme test (scintillation proximity assay); type: biochemical; settings: rat brain FTase, biotinylated lamin B peptide, [3H]farnesyl pyrophosphate, 37° C., one hour; read-out: IC50 with respect to FTase
# T1 construct: The two enzymes FTase and GGTase-I were purified starting from rat's brain; from tissue; host or cells: rat brain
# Method: The two enzymes FTase and GGTase-I were purified starting from rat's brain. After grinding and centrifuging, the supernatant is precipitated with 30% ammonium sulphate and the resulting supernatant is subjected to another precipitation with 50% ammonium sulphate. The pellet is then passed through a column of phenyl agarose and the fractions collected after elution with sodium chloride are evaluated for their enzyme content in accordance with the “scintillation proximity assay” method described hereinbelow. The fractions corresponding to one or other of the two enzymes are then combined and frozen at −80° C. until use.
# The determination of the enzymatic activity of the FTase is carried out in 96-well plates by a radioactive scintillation proximity assay method. The acceptor substrate composed of the carboxy terminal sequence of lamin B (YRASNRSCAIM) coupled to biotin is incubated in the presence of the radiolabelled donor substrate ([^3H]farnesyl pyrophosphate), and of various concentrations of test compounds in dimethyl sulphoxide (DMSO). The reaction is initiated at 37° C. by adding FTase enzyme for a duration of one hour, and is then stopped with an appropriate buffer containing a suspension of beads impregnated with scintillant. […]
smiles,measurement,setting,value
"CC(C)(C)OC(=O)Nc1ccc(-n2c(=O)c3ccccc3n(CC(Cc3ccccc3)Cn3ccnc3)c2=O)cc1 (centres unmarked) [Example 2, tert-Butyl 4-(1-[2-benzyl-3-(1H-imidazol-1-yl)propyl]-2,4-dioxo-1,4-dihydro-3(2H)-quinazolinyl)phenylcarbamate]",IC50,[1],9 nM
same,IC50,FTase,19 nM
